Literature values in patent EP4570255A1, “SPORICIDAL ANTIMICROBIAL COMPOSITIONS AND USES THEREOF” (Silva, Renata Moisés Iwamizu, priority 2022, dated 2024).
Structures can show the parent of a compound that is named as a salt.

solubility in water	SMILES
about 1.8%	[H]/N=C(\N/C(=N/[H])NCCCCCCNC(=N)NC(=N)Nc1ccc(Cl)cc1)Nc1ccc(Cl)cc1 [diacetate salt, 1,1'-hexamethylene-bis-(5-(p-chlorophenyl)biguanide)]
about 70%	[H]/N=C(\N/C(=N/[H])NCCCCCCNC(=N)NC(=N)Nc1ccc(Cl)cc1)Nc1ccc(Cl)cc1 [digluconate salt, 1,1'-hexamethylene-bis-(5-(p-chlorophenyl)biguanide)]
